The source of these data is patent US20230233569A1 (Revolution Medicines, Inc., priority 2020, published 2023).

In one experiment the test system is NCI-H358 (K-Ras G12C). Description: CellTiter-Glo cell viability assay, 5-day treatment. It is filed as cell-based. To be noted: Homo sapiens. The gist of the method: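 Luminescence read-out after 5 days of compound exposure, with plates first brought to room temperature for roughly 30 minutes. Values are percent of averaged DMSO wells, fitted by four-parameter logistic regression.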

The next experiment addresses NRAS Q61K (Homo sapiens, UniProt P01111+P62937, Q61K). Description: Disruption of BRAF RBD interaction with Ras (FRET / MOA assay, with Cyclophilin A). It is filed as biochemical. To be noted: NRAS Q61K; read-out: NRAS Q61K FRET data IC50. Summed up: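 IC50 reflects compound-driven Ras:Cyclophilin A ternary complex displacing BRAF RBD, read as lowered TR-FRET ratio relative to DMSO after Eu anti-His (10 nM) and APC anti-GST (50 nM) detection for 1.5 h. Prior incubation 3 h, 25° C, with 12.5 nM GMPPNP-loaded Ras, 50 nM BRAF RBD, 25 μM Cyclophilin A; top compound 30 μM.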

Experiment [1] deals with K-Ras G12C (NCI-H358 cells). Description: Potency assay: pERK (AlphaLISA SureFire or In-Cell Western). It is filed as cell-based. Conditions: Homo sapiens, NCI-H358. The gist of the method:
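Cellular pERK decrease measured after 4 h compound exposure (37 °C, 5% CO2) of NCI-H358 cells, 10-point 3-fold series from 10 mM DMSO stock, duplicates. Detection either by In-Cell Western (IR-800CW secondary, DRAQ5 stain) or AlphaLISA SureFire Ultra p-ERK1/2; 4-parameter sigmoidal fit gave IC50.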

[2] abbreviates: NCI-H358, H358, K-Ras G12C, read-out: Additional H358 Cell Viability assay data (K-Ras G12C, IC50).
Where [3] appears, read: H358 KRAS G12C, read-out: pERK EC50.

SMILES strings stand for the structures. Like-named read-outs stand apart in the source and are kept apart here.

Sequence of NRAS Q61K (P01111 whole entry Q61K): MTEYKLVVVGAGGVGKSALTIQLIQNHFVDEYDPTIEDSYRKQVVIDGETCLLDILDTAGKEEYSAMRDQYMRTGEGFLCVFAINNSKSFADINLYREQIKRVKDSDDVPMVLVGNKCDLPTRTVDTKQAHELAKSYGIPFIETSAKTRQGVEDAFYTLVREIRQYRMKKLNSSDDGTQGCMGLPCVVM
Sequence of NRAS Q61K (P62937 whole entry): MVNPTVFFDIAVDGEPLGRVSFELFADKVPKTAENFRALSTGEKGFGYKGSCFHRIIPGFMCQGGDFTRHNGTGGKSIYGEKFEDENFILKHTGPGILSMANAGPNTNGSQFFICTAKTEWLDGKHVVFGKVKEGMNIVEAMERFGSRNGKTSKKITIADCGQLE

Turning to `CO[C@@H](COC1CN(C(=O)C#CC(C)(C)N(C)C)C1)C(=O)N[C@H]1Cc2cccc(c2)-c2ccc3c(c2)c(c(-c2cccnc2[C@H](C)OC)n3CC(F)(F)F)CC(C)(C)COC(=O)[C@@H]2CCCN(N2)C1=O` [Example A556], the figures for the IC50 in the experiment on NCI-H358 (K-Ras G12C) (setting [2]) and at NRAS Q61K were < 10 nM and > 10000 nM, respectively. The concentration giving a half-maximal response (EC50) in experiment [1] (setting [3]) is < 5000 nM.

`CCn1c(-c2cccnc2[C@H](C)OC)c2c3cc(ccc31)-c1csc(n1)C[C@H](NC(=O)[C@H](C(C)C)N(C)C(=O)N(C)C1CN(C(=O)/C=C/C(C)(C)O)C1)C(=O)N1CCC[C@H](N1)C(=O)OCC(C)(C)C2` (atropisomer, axis not shown) [Example A350]: the IC50 in the experiment with NCI-H358 (K-Ras G12C) (setting [2]) fell in the range of 100 to 1000 nM; at NRAS Q61K, 10 to 100 nM. In experiment [1] (setting [3]), the EC50 was < 5000 nM.

With `C=CC(=O)N1CC[C@]2(C1)OCN(C(=O)N(C)[C@H](C(=O)N[C@H]1Cc3cccc(n3)-c3ccc4c(c3)c(c(-c3cccnc3[C@H](C)OC)n4CC)CC(C)(C)COC(=O)[C@@H]3CCCN(N3)C1=O)C(C)C)C2=O` (atropisomer, axis not shown) [Example A652], the IC50 in the experiment on NCI-H358 (K-Ras G12C) (setting [2]) lay within 100 to 1000 nM; on NRAS Q61K, 1000 to 10000 nM. Also, the concentration giving a half-maximal response (EC50) in experiment [1] (setting [3]) is < 5000 nM.

For the compound `CCn1c(-c2cccnc2[C@H](C)OC)c2c3cc(ccc31)N1CCO[C@@](C)(CC(NC(=O)[C@H](C(C)C)N(C)C(=O)C3(F)CCN(C(=O)C#CC(C)(C)N(C)C)CC3)C(=O)N3CCC[C@H](N3)C(=O)OCC(C)(C)C2)C1` (some centres unmarked) [Example A550], the values for the IC50 with NCI-H358 (K-Ras G12C) (setting [2]) and at NRAS Q61K were < 10 nM and 1000 to 10000 nM, respectively. For the same compound, the EC50 in experiment [1] (setting [3]) is < 5000 nM.

For the compound `CCn1c(-c2cccnc2[C@H](C)OC)c2c3cc(ccc31)-c1cc(O)cc(c1)C[C@H](NC(=O)[C@H](C(C)C)N(C)C(=O)[C@H]1CCN(C(=O)OC)C1)C(=O)N1CCC[C@H](N1)C(=O)OCC(C)(C)C2` (atropisomer, axis not shown) [Example A3], the IC50 is 57 nM in the experiment on NCI-H358 (K-Ras G12C) (NCI-H358, 120 h, 5-day treatment, read-out: H358 Cell Viability IC50) and 100 to 1000 nM on NRAS Q61K. Also, in experiment [1] (read-out: H358 pERK EC50), the EC50 came out at 18 nM.

Take `C=CC(=O)N1CCOC2(CCN(C(=O)N(C)[C@H](C(=O)N[C@H]3CN4CCC=C(C4)c4ccc5c(c4)c(c(-c4cccnc4[C@H](C)OC)n5CC)CC(C)(C)COC(=O)[C@@H]4CCCN(N4)C3=O)C(C)C)CC2)C1` [Example A563]: the IC50 lay within 100 to 1000 nM with NCI-H358 (K-Ras G12C) (setting [2]) and 1000 to 10000 nM on NRAS Q61K. Moreover, the half-maximal effective concentration (EC50) in experiment [1] (setting [3]) was < 5000 nM.

On to `C=CC(=O)N1CC[C@H](C(=O)N(C)[C@H](C(=O)N[C@H]2Cc3cc(O)cc(c3)-c3ccc4c(c3)c(c(-c3ccnc5c3[C@@H](OC)CC5)n4CC)CC(C)(C)COC(=O)[C@@H]3CCCN(N3)C2=O)C(C)C)C1` [Example A275], for which the IC50 in the experiment with NCI-H358 (K-Ras G12C) (setting [2]) is < 10 nM; on NRAS Q61K it was 100 to 1000 nM. In experiment [1] (setting [3]), the EC50 is < 5000 nM.

With `C=CC(=O)N1CC[C@@H](N(C)C(=O)N(C)[C@H](C(=O)N[C@H]2Cc3nc(cs3)-c3ccc4c(c3)c(c(-c3cccnc3[C@H](C)OC)n4CC)CC(C)(C)COC(=O)[C@@H]3CCCN(N3)C2=O)C(C)C)C1` [Example A349], the IC50 in the experiment with NCI-H358 (K-Ras G12C) (setting [2]) and on NRAS Q61K was 10 to 100 nM each time. The EC50 in experiment [1] (setting [3]) is < 5000 nM.

With `CCn1c(-c2cccnc2[C@H](C)OC)c2c3cc(ccc31)-c1cccc(c1)C[C@H](NC(=O)[C@H](C(C)C)N1CC[C@]3(CCN(C(=O)C#C[C@]4(N(C)C)CCOC4)C3)C1=O)C(=O)N1CCC[C@H](N1)C(=O)OCC(C)(C)C2` [Example A559], the values for the half-maximal inhibitory concentration (IC50) in the experiment with NCI-H358 (K-Ras G12C) (setting [2]) and on NRAS Q61K were < 10 nM and 1000 to 10000 nM, respectively. Also, the concentration for a half-maximal effect (EC50) in experiment [1] (setting [3]) is < 5000 nM.

`C=CC(=O)N1CC[C@H](C(=O)N(C)[C@H](C(=O)N[C@H]2Cc3nsc(n3)-c3ccc4c(c3)c(c(-c3cccnc3[C@H](C)OC)n4CC)CC(C)(C)COC(=O)[C@@H]3CCCN(N3)C2=O)C(C)C)C1` (atropisomer, axis not shown) [Example A694]: the IC50 in the experiment on NCI-H358 (K-Ras G12C) (setting [2]) was 10 to 100 nM; on NRAS Q61K, 100 to 1000 nM. The EC50 in experiment [1] (setting [3]) is < 5000 nM.

Regarding `C=CC(=O)N1CCO[C@@]2(CCN(C(=O)N(C)[C@H](C(=O)N[C@H]3Cc4nc(cs4)-c4ccc5c(c4)c(c(-c4cccnc4[C@H](C)OC)n5CC(F)(F)F)CC(C)(C)COC(=O)C4CCCN(N4)C3=O)C(C)C)C2)C1` (some centres unmarked) [Example A594], the IC50 in the experiment on NCI-H358 (K-Ras G12C) (setting [2]) is < 10 nM; at NRAS Q61K it was 10 to 100 nM. Further, the EC50 in experiment [1] (setting [3]) was < 5000 nM.

As to `C=CC(=O)N1CCOC2(CCN(C(=O)N(C)[C@H](C(=O)N[C@H]3Cc4nc(n(C)n4)-c4ccc5c(c4)c(c(-c4cccnc4[C@H](C)OC)n5CC(F)(F)F)CC(C)(C)COC(=O)C4CCCN(N4)C3=O)C(C)C)CC2)C1` (some centres unmarked) [Example A606], the IC50 in the experiment on NCI-H358 (K-Ras G12C) (setting [2]) and on NRAS Q61K was 100 to 1000 nM in each case. The EC50 in experiment [1] (setting [3]) was < 5000 nM.

As for `C=CC(=O)N1CCO[C@H]2CN(C(=O)N(C)[C@H](C(=O)N[C@H]3Cc4cccc(n4)-c4ccc5c(c4)c(c(-c4cccnc4[C@H](C)OC)n5CC(F)(F)F)CC(C)(C)COC(=O)C4CCCN(N4)C3=O)C(C)C)C[C@H]21` (some centres unmarked) [Example A595], the IC50 with NCI-H358 (K-Ras G12C) (setting [2]) is < 10 nM; at NRAS Q61K it was 100 to 1000 nM. Further, the EC50 in experiment [1] (setting [3]) was < 5000 nM.

As to `CC#CC(=O)N1CC[C@H](C(=O)N(C)[C@H](C(=O)N[C@H]2Cc3nc(cs3)-c3ccc4c(c3)c(c(-c3cccnc3[C@H](C)OC)n4CC)CC(C)(C)COC(=O)[C@@H]3CCCN(N3)C2=O)C(C)C)C1` [Example A168], the IC50 lay in the range of 10 to 100 nM in the experiment with NCI-H358 (K-Ras G12C) (setting [2]) and 1000 to 10000 nM at NRAS Q61K. In experiment [1] (setting [3]), the concentration giving a half-maximal response (EC50) is < 5000 nM.

In the case of `CCn1c(-c2cccnc2[C@H](C)OC)c2c3cc(ccc31)-c1cccc(c1)C[C@H](NC(=O)[C@H](C(C)C)N1CC[C@]3(CCN(C(=O)C#C[C@@H]4COCCN4C4COC4)C3)C1=O)C(=O)N1CCC[C@H](N1)C(=O)OCC(C)(C)C2` [Example A565], the results for the half-maximal inhibitory concentration (IC50) with NCI-H358 (K-Ras G12C) (setting [2]) and on NRAS Q61K were 10 to 100 nM and > 10000 nM, respectively. In addition, the concentration for a half-maximal effect (EC50) in experiment [1] (setting [3]) was < 5000 nM.

Regarding `C=CC(=O)N1CC[C@@]2(CCN2C(=O)N(C)[C@H](C(=O)N[C@H]2Cc3nc(cs3)-c3ccc4c(c3)c(c(-c3cccnc3[C@H](C)OC)n4CC)CC(C)(C)COC(=O)C3CCCN(N3)C2=O)N(C)C)C1` (single isomer, unassigned) [Example A661], the IC50 in the experiment with NCI-H358 (K-Ras G12C) (setting [2]) was < 10 nM; at NRAS Q61K, 10 to 100 nM. Further, the EC50 in experiment [1] (setting [3]) is < 5000 nM.

`CCn1c(-c2cccnc2[C@H](C)OC)c2c3cc(ccc31)-c1csc(n1)C[C@H](NC(=O)[C@H](COC1CN(C(=O)C#CC(C)(C)N(C)C)C1)OC)C(=O)N1CCC[C@H](N1)C(=O)OCC(C)(C)C2` (atropisomer, axis not shown) [Example A705]: the IC50 is < 10 nM in the experiment on NCI-H358 (K-Ras G12C) (setting [2]) and 1000 to 10000 nM at NRAS Q61K. Besides, the EC50 in experiment [1] (setting [3]) was < 5000 nM.

For `C=CC(=O)N1CC[C@H](C(=O)N(C)[C@H](C(=O)N[C@H]2Cc3cc(O)cc(c3)-c3cnc4c(c3)c(c(-c3ccccc3CCOC)n4CC)CC(C)(C)COC(=O)[C@@H]3CCCN(N3)C2=O)C(C)C)C1` [Example A210], on NRAS Q61K, the IC50 lay within 1000 to 10000 nM. Also, the EC50 in experiment [1] (setting [3]) was < 5000 nM.

As for `C=CC(=O)N1CCO[C@H]2CCN(C(=O)N(C)[C@H](C(=O)N[C@H]3Cc4nc(cs4)-c4ccc5c(c4)c(c(-c4cccnc4[C@H](C)OC)n5CC)CC(C)(C)COC(=O)C4CCCN(N4)C3=O)C(C)C)C[C@@H]21` (some centres unmarked) [Example A609], the IC50 in the experiment with NCI-H358 (K-Ras G12C) (setting [2]) is < 10 nM; at NRAS Q61K, 10 to 100 nM. Besides, the EC50 in experiment [1] (setting [3]) is < 5000 nM.

For the compound `C=CC(=O)N1CCC2(C1)CN(C(=O)N(C)[C@H](C(=O)N[C@H]1Cc3nc(cs3)-c3ccc4c(c3)c(c(-c3cccnc3[C@H](C)OC)n4CC(F)(F)F)CC(C)(C)COC(=O)C3CCCN(N3)C1=O)C(C)C)C2` (some centres unmarked) [Example A603], the IC50 in the experiment on NCI-H358 (K-Ras G12C) (setting [2]) and on NRAS Q61K was 10 to 100 nM each time. Moreover, the EC50 in experiment [1] (setting [3]) was < 5000 nM.
